Like-named read-outs stand apart in the source and are kept apart here. Each block holds one compound with its values, some of them ahead of it.
Columns and labels:
[1] = system: Caco-2 cells; assay: cell viability, resazurin reduction assay, Caco-2; settings: for cell viability, monotreatment: up to 50 µM; for cytotoxicity of IT in combination with PARPi: not statistically significant; for IC50: read-out: IC50-values Caco-2
[2] = system: P-glycoprotein; set-up: method as in PMID 24700236; settings: efflux transporter; cited from earlier work
[3] = system: H2O2-induced PAR formation (PARP-1 activity) in HCT116 cells; assay: PAR immunofluorescence: H2O2-induced PAR formation in HCT116 cells; assay type: cell-based, human; settings: for IC50: Homo sapiens, HCT-116, 2 h pretreatment, 1 mM H2O2 5 min
Protocol: Cells lines were re-authenticated by p53, PARP-1, ATR, and BRCA2 immunoblotting, by their characteristic differential response to genotoxic agents and their typical cell morphology. HCT116, HCT116 BRCA2^−/−, DLD-1 ATR^+/+ and DLD-1 ATR^s/s cells were maintained in DMEM, whereas HCT116 PARP-1^+/+ and HCT116 PARP-1^−/− cells were maintained in RPMI1640 containing 10% FCS and 1% penicillin/streptomycin in a humidified atmosphere at 37 °C and 5% CO2. Caco-2 cells were cultured in MEM with 10% FCS, 1% penicillin/streptomycin, and nonessential amino acids. […] The media and supplements were obtained from PAN-Biotech (Aidenbach, Germany) and Thermo Fisher Scientific (Darmstadt, Germany). Cell culture was frequently tested for contamination with mycoplasma by PCR using the Venor® GeM Classic kit (Minerva Biolabs, Berlin, Germany) and immunofluorescence microscopy with nuclear staining. […] Cells were exposed for 1 h for the quantification of PARP-1 trapping or 2 h for assessing the inhibitory potential by confocal fluorescence microscopy. […] If the PARPi treatment was conducted in combination with cytostatic drugs for 24 h (γH2AX Western blot analysis) or 72 h (cytotoxicity testing), the PARPi was added 2 h prior.
The activity of potential PARP inhibitors was tested in a cell model using immunofluorescence-based detection of PAR essentially as reported previously. HCT116 cells were seeded in Ibidi 12-well chamber slides and cultivated until they reached 70% confluence. Induction of PARylation was achieved by adding 1 mM H2O2 in PBS/1 mM MgCl2 for 5 min at 37 °C. Cells were washed with PBS/1 mM MgCl2 and fixed by adding 4% PFA at RT. After 20 min, cells were washed with PBS/100 mM glycine for 1 min and permeabilized with PBS/0.3% Triton X-100 for 3 min. Blocking of the cells was conducted by adding PBS/0.05% Tween containing 5% powdered milk for 1 h at RT. […] Cells were washed and an Alexa488-coupled secondary antibody was added for 1 h at RT. The slides were mounted with VectaShield containing DAPI and analyzed by confocal microscopy using a Zeiss Axio Observer 7 microscope (Oberkochen, Germany) equipped with a 63× oil objective (Plan-Apochromat 63×/1.40 DIC M27) and a LSM900 confocal laser scanner (Zeiss, Oberkochen, Germany). Images were analyzed using Zeiss Zen software version 3.4 and ImageJ v1.53t (NIH, Bethesda, MD, USA). Briefly, nuclei were identified based on the DAPI signal and marked as regions of interest (ROI). Subsequently, the mean PAR signal in the identified ROI was quantified in each image and exported for further analysis. For the individual experiments, the mean PAR intensity was averaged for each treatment group and the control was set to 100%. Only images with a minimum of 4 cells were included in the analysis and at least 5 images were assessed per treatment group. The experiments were conducted in at least 3 biological replicates. To derive IC50 concentrations, relative PAR levels of the experiments were transferred to GraphPad Prism 9.0 Software (GraphPad Software Inc., Boston, MA, USA) for a nonlinear regression analysis applying a three-parameter model.

[4] = system: DLD-1 ATRs/s cells; assay: cell viability, resazurin reduction assay, DLD-1 ATRs/s; settings: for IC50: read-out: IC50-values DLD-1 ATRs/s; for cell viability, monotreatment: DLD-1 ATRs/s
[5] = system: HCT116 BRCA2−/− cells; assay: cell viability, resazurin reduction assay, HCT116 BRCA2-/-; settings: for IC50: read-out: IC50-values HCT116 BRCA2−/−
[6] = system: HCT116 WT cells; assay: cell viability, resazurin reduction assay, HCT116 WT; settings: for IC50: Homo sapiens, HCT-116, 72 h, read-out: IC50-values HCT116 WT
[7] = system: DLD-1 WT cells; assay: cell viability, resazurin reduction assay, DLD-1 WT; settings: for IC50: read-out: IC50-values DLD-1 WT; for cell viability, monotreatment: DLD-1 WT
[8] = system: human colonic epithelial cells (HCEC); assay: cell viability, resazurin reduction assay, HCEC; settings: 72 h; for IC50: read-out: IC50-values HCEC; for cell viability, monotreatment: nonmalignant HCEC, up to 50 µM
[9] = system: PARP-2; set-up: method as in PMID 34327724; settings: cited from earlier work
[10] = system: HCT116 PARP-1+/+ cells; assay: cell viability, resazurin reduction assay, HCT116 PARP-1+/+; settings: for IC50: read-out: IC50-values HCT116 PARP1+/+
[11] = biological target: T1, PARP-1 (Homo sapiens, UniProt P09874); assay: chemiluminescence-based PARP-1 assay kit (recombinant enzyme); settings: for IC50: IC50 PARP-1 screening assay kit
T1 sequence (P09874 whole entry): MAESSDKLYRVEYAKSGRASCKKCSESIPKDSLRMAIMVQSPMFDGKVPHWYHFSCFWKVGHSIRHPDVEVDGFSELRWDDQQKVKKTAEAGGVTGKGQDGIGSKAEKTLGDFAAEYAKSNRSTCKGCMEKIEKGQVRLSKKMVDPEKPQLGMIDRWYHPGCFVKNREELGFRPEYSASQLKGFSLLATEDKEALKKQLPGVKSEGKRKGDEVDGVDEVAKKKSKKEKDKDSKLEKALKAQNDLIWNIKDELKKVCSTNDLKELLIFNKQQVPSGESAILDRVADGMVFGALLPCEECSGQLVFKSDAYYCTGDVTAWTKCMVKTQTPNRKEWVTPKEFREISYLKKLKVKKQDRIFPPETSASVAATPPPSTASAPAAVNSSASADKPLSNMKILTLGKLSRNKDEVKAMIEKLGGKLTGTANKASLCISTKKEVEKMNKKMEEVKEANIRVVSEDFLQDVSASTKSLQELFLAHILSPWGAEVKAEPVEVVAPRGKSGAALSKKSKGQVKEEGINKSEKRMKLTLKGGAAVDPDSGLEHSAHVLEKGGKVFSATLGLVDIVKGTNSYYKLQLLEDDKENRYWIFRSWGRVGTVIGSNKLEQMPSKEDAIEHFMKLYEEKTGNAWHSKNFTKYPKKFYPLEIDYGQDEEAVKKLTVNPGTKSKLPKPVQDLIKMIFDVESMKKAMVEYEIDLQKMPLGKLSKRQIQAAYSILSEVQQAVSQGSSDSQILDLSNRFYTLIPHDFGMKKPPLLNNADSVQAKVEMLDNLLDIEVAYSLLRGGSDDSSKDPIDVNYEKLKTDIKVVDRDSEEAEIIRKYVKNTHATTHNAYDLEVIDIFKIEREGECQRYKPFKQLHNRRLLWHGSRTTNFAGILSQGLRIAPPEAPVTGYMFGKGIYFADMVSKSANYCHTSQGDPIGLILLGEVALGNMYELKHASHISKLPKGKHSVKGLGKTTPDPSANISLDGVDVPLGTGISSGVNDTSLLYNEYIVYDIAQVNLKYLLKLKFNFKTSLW

[12] = system: HCT116 PARP-1−/− cells; assay: cell viability, resazurin reduction assay, HCT116 PARP-1-/-; settings: for IC50: read-out: IC50-values HCT116 PARP1−/−
[13] = system: γH2AX formation in HCT116 WT cells; assay: γH2AX Western blot in HCT116 WT cells
[14] = system: γH2AX formation in HCT116 BRCA2−/− cells; assay: γH2AX Western blot in HCT116 BRCA2-/- cells; settings: PARPi 50 µM, IT 0.25 µM 24 h
[15] = biological target: T1, PARP-1; assay: chromatin retention assay (PARP-1 trapping) in HCT116 cells; settings: HCT116, MMS 1 mM 1 h with inhibitor
[16] = biological target: T1, PARP-1; assay: chromatin retention assay (PARP-1 trapping) in Caco-2 cells; settings: Caco-2, MMS 1 mM 1 h with inhibitor

SMILES: O=C(c1cc(Cc2n[nH]c(=O)c3ccccc23)ccc1F)N1CCN(C(=O)C2CC2)CC1 [Olaparib, olaparib]
cytotoxicity of IT in combination with PARPi ([1]; Caco-2, IT 10 µM): moderately increased the cytotoxicity of IT
IC50 ([1]; Homo sapiens, Caco-2, 72 h): > 50 µM
P-glycoprotein substrate [2]: known substrates for P-glycoprotein
PAR formation ([3]; 10 nM, positive control): completely blocked PAR formation
cytotoxicity, monotreatment ([5]; HCT116 BRCA2−/−, 72 h): High cytotoxicity in the low micromolar concentration range
IC50 ([5]; Homo sapiens, HCT-116, 72 h): 0.46 µM
IC50 ([7]; Homo sapiens, DLD-1, 72 h): 5.88 µM
IC50 ([8]; Homo sapiens, HCEC): > 50 µM
cell viability, monotreatment [8]: moderate decline in viability at the highest concentration

SMILES: C[C@]1(c2nc3c(C(N)=O)cccc3[nH]2)CCCN1 [Veliparib, veliparib]
cell viability in combination with cytostatics [10]: significant decrease in cell viability compared to mono-treatment with cytostatics
cell viability, monotreatment [10]: only mild cytotoxicity at the highest test concentration
IC50 [10]: > 50 µM
cell viability, monotreatment ([1]; Caco-2, 72 h): little cytotoxicity at the highest test concentration
cytotoxicity of IT in combination with PARPi ([1]; Caco-2, IT 10 µM): moderately increased the cytotoxicity of IT
IC50 ([1]; 72 h, RRA): > 50 µM
P-glycoprotein substrate [2]: are not excreted
PARP-1 activity, % of the negative control ([11]; concentration of 5 nM): ~50%
cell viability, monotreatment ([4]; 72 h): concentration-dependent decrease in viability in both cell models
IC50 ([4]; 72 h, RRA): > 50 µM
cell viability in combination with cytostatics [12]: did not sensitize to the anticancer drugs
cell viability, monotreatment [12]: only mild cytotoxicity at the highest test concentration
IC50 [12]: > 50 µM
cytotoxicity, monotreatment ([5]; HCT116 BRCA2−/−, 72 h): High cytotoxicity in the low micromolar concentration range
IC50 [5]: 7.45 µM
cell viability, monotreatment ([7]; 72 h): concentration-dependent decrease in viability in both cell models
IC50 ([7]; 72 h, RRA): > 50 µM
cell viability, monotreatment [8]: no effect on HCEC
IC50 ([8]; RRA): > 50 µM

IC50 ([10]; Homo sapiens, HCT-116, 72 h): > 50 µM
IC50 ([1]; Homo sapiens, Caco-2, 72 h): > 50 µM
IC50 [11]: 0.041 µM
IC50 ([11]; recombinant PARP-1, 1 h RT, n = 2): 0.0413 µM
IC50 ([3]; range over the three compounds, read-out: IC50 cellular PARP inhibition): 0.005 to 0.035 µM
IC50 ([3]; unit inferred, read-out: IC50 PAR formation in HCT116 cells (Figure A3A)): 0.036 µM
IC50 ([4]; Homo sapiens, DLD-1, 72 h): > 50 µM
IC50 ([12]; Homo sapiens, HCT-116, 72 h): > 50 µM
IC50 ([5]; Homo sapiens, HCT-116, 72 h): > 50 µM
IC50 [6]: > 50 µM
IC50 ([7]; Homo sapiens, DLD-1, 72 h): > 50 µM
PARP-1 trapping [16]: no effects were detected
SMILES: O=C(O)C1=NNC(=O)c2cccc3[nH]cc1c23 [X17613, 1-oxo-2,6-dihydro-1H-[1,2]diazepino [4,5,6-cd]indole-4-carboxylic acid]
cell viability, monotreatment ([10]; HCT116 PARP-1+/+, 72 h, up to 50 µM): Neither X17613 nor X17618 decreased cell viability
cell viability in combination with cytostatics ([10]; HCT116 PARP-1+/+, IT 0.5 µM, 5-FU 0.25 µM, OXA 0.5 µM, 72 h, PARPi added 2 h prior): did not affect the cytotoxicity of the anticancer drugs
γH2AX, co-treatment with IT compared to IT mono-treatment ([13]; PARPi 50 µM 2 h prior, IT 0.25 µM 24 h): no significant further increase
γH2AX, mono-treatment ([13]; X17613 50 µM or IT 0.25 µM, 24 h): No significant increase in γH2AX
cell viability, monotreatment ([1]; Caco-2, 72 h): little cytotoxicity at the highest test concentration
sensitization towards the anticancer drugs ([1]; Caco-2, IT 10 µM, 5-FU 5 µM, OXA 1 µM): no sensitization towards the anticancer drugs
γH2AX, co-treatment with IT [14]: further augmented in the presence of X17613
PAR signal ([3]; concentration of 100 nM, H2O2-induced): significant decrease in the PAR signal
cell viability, monotreatment ([4]; 72 h): no effects
chromatin-bound PARP-1 (PARP-1 trapping) [15]: No enrichment of PARP-1 in the chromatin fraction
cell viability, monotreatment ([12]; HCT116 PARP-1−/−, 72 h, up to 50 µM): Neither X17613 nor X17618 decreased cell viability
cell viability in combination with cytostatics ([12]; HCT116 PARP-1−/−, IT 0.5 µM, 5-FU 0.25 µM, OXA 0.5 µM, 72 h, PARPi added 2 h prior): did not affect the cytotoxicity of the anticancer drugs
decrease of viability ([5]; HCT116 BRCA2−/−, highest test concentration of 50 µM, 72 h): about 25%
cell viability in combination with chemotherapeutics ([5]; HCT116 BRCA2−/−, IT 0.25 µM, 5-FU 0.1 µM, OXA 0.25 µM, 72 h): significant reduction in viability in HCT116 BRCA2^−/− cells in combination with the established cytostatic drug IT
cell viability, monotreatment ([6]; HCT116 WT, 72 h, up to 50 µM): no impact
cell viability, monotreatment ([7]; 72 h): no effects
IC50 ([8]; Homo sapiens, HCEC): > 50 µM
cell viability, monotreatment [8]: no effect on HCEC
